Test results: US9394549B2, “Method for producing useful chemical substance from terephthalic acid potassium salt” (GENARIS, INC., priority 2012, dated 2016)

Legend:
[1] = tested on: recombinant Escherichia coli strain M7032 (pUXPEaLT_tphA2A3A1_tpaK); experiment: Production of TPA-DHD from terephthalic acid salt in jar fermentor culture; assay type: cell-based; conditions: for Ratio of the capacity in production (TPA-DHD): disodium terephthalate as 100%
Method: Based on the results of Example 1, on the basis of terephthalic acid, potassium hydroxide, sodium hydroxide, 28% ammonium solution and distilled water, 0.6 M dipotassium terephthalate aqueous solution, 0.6 M 1-potassium 4-sodium terephthalate aqueous solution, 0.6 M 1-potassium 4-ammonium terephthalate aqueous solution, and 0.6 M disodium terephthalate aqueous solution were prepared 500 mL each. 30 ml of these terephthalic acid salt solutions and 7 g of glucose were mixed to prepare a glucose and substrate mixed solution.
A TPA-DHD production plasmid pUXPEaLT_tphA2A3A1_tpaK constructed in Reference Example 3 was introduced into Escherichia coli M7032 strain (obtained from CGSC of Yale University) by a transformation method to obtain a recombinant Escherichia coli strain M7032 (pUXPEaLT_tphA2A3A1_tpaK).
This transformant was cultured in 1 ml of LB liquid medium (10 g/l tryptone (manufactured by Difco), 5 g/l dried yeast extract (manufactured by Difco), 10 g/l sodium chloride) containing ampicillin at a final concentration of 100 mg/1 overnight. Next, merely 1% of this overnight culture was inoculated in 10 ml of F6.6W/P100/G2 medium containing ampicillin at a final concentration of 100 mg/I and cultured at 30° C. for 24 hours.
Next, in order to carry out main culture based on this preculture, 65 ml of F6.6W/P10/G1 medium which is a main culture medium was put in an octuple mini jar fermentor (manufactured by ABLE Corporation) and adjusted to 30.2° C.±0.2 and pH 6.9±0.1.
The aeration condition of the jar fermentor culture was adjusted to 1 vvm and the adjustment of the pH of the culture was carried out using an ammonium solution and sulfuric acid. Further, dissolved oxygen in the culture solution was regulated as a saturated oxygen concentration of 100% and controlled with the revolution of stirring blade such that the dissolved oxygen is maintained at 15%, which dissolved oxygen decreasing as bacterial cells grow.
In a main culture medium, 0.1% of preculture was inoculated and cultured in the above condition. When the bacterial cell turbidity reached about 7 at an absorbance of 600 nm, an inducer, m-toluic acid was added such that the final concentration thereof was 1 mM to express a terephthalate 1,2-dioxygenase protein, terephthalate 1,2-dioxygenase reductase protein, and terephthalic acid transporter protein. The glucose concentration was measured with time. When the glucose concentration reached 0, the glucose and substrate mixed solution was administered.
Each of the samples was subjected to analysis in conditions shown in Table 1 by an LC-TOF type mass spectrometer (Waters Corporation, LCT Premier XE). Identification of terephthalic acid was carried out with a combination of retention time of high performance liquid chromatography and an accurate mass value from the mass spectrometer, comparing to a standard sample of terephthalic acid. Among substances appeared as terephthalic acid decreased, TPA-DHD was identified on the basis of a predicted accurate mass value of TPA-DHD. Further, quantification of TPA-DHD was carried out on the basis of a calibration curve prepared from an amount of terephthalic acid decreased and an increase in the peak area of TPA-DHD.
First, 0.6 M dipotassium terephthalate aqueous solution and 0.6 M disodium terephthalate aqueous solution, both of which were prepared in Example 2, were mixed at a ratio of 0:100, 20:80, 25:75, 30:70, 35:65, and 50:50 to prepare each aqueous solution of the terephthalic acid salts. These terephthalic acid salt solutions 30 ml and glucose 7 g were mixed to obtain glucose and substrate mixed solutions.
Using these glucose and substrate mixed solutions, the capacity of recombinant Escherichia coli strain M7032 (pUXPEaLT_tphA2A3A1_tpaK) in production of TPA-DHD was examined by the same method as the method of Example 2. […]

[2] = Solubility of terephthalic acid salts in water; assay type: physicochemical
Method: 2.99 g (0.018 mol) of terephthalic acid (in a form of powder, manufactured by Sigma-Aldrich Japan; hereinafter, unless otherwise specified, reagents used were ones manufactured by Sigma-Aldrich Japan) and 0.036 mol of potassium hydroxide (in a form of granule) were put in a 50 mL-glass beaker. Distilled water was filled to obtain a volume of about 15 mL. The resulting mixture was covered with aluminum foil as a lid, heated at 50° C. for 60 minutes while stirred by a hot stirrer (manufactured by AS ONE Corporation), and allowed to cool to 30° C. After stirring at 30° C. for 120 minutes or more and confirming the precipitate remained in the solution, 1 mL of the solution was collected and subjected to centrifugation using a high speed micro centrifuge (manufactured by Tomy Seiko Co., Ltd.) (30° C., 14000 rpm (17800 g), 30 seconds) to collect the supernatant.
The concentration of terephthalic acid in this supernatant was measured and regarded as the solubility of dipotassium terephthalate. With regard to the measurement of the concentration of terephthalic acid, the sample was diluted 16,000-fold with 2.5% aqueous acetonitrile solution and analyzed in separation conditions of Table 1 using high performance liquid chromatography (Waters Corporation, LCT Premier XE). Thereafter, the concentration was calculated on the basis of a ratio of the area of terephthalic acid peaks using aqueous terephthalic acid solution with a known concentration as a control.

[3] = Solubility of terephthalic acid salts in 1-butanol; assay type: physicochemical; conditions: organic solvent or mixture, same manner as Example 1
Excerpt: As just seen above, it was found out that, unlike the dissolution in ethylene glycol, the dissolution in 1-butanol was very poor.

[4] = 0.6 M salt solution as raw material, 48 hours after the start of the main culture
[5] = salt from PET in 1-butanol, 35 hours
[6] = salt obtained by depolymerization of PET in 1-butanol (Example 9), 0.6M, 35 hours
[7] = salt obtained by depolymerization of PTT (Example 7), 0.6M, 48 hours
[8] = 30 °C, water, thermodynamic from solid, in water at 30° C., rounded values of the summary, read-out: solubility in water at 30° C.
[9] = 30 °C, water, thermodynamic from solid, in water, 30° C., read-out: Solubility

Row | SMILES | TPA-DHD [1, 4] [g/L] | Ratio of the capacity in production (TPA-DHD) ([1]; 48 hours) [%] | solubility [2] [mM] | solubility in water at 30° C. [2] | Ratio of the capacity in production (TPA-DHD) [1, 5] [%] | Ratio of the capacity in production (TPA-DHD) ([1]; salt from PTT, 48 hours) [%] | TPA-DHD [1, 6] [g/L] | TPA-DHD [1, 7] [g/L] | solubility [2, 8] [mM] | solubility [2, 9] [mM] | solubility [3] [mM]
1 | N.O=C([O-])c1ccc(C(=O)O)cc1.[K+] [1-potassium 4-ammonium terephthalate] | 12.2 | 126 | 845 | about 0.85 M |  |  |  |  |  |  | 
2 | O=C([O-])c1ccc(C(=O)[O-])cc1.[K+].[Na+] [1-potassium 4-sodium terephthalate] | 10.7 | 110 | 956 | about 0.96 M | 116 | 112 | 14.8 | 14.3 |  |  | 
3 | O=C([O-])c1ccc(C(=O)[O-])cc1.[K+].[K+] [Dipotassium terephthalate, dipotassium terephthalate] | 11.3 | 116 |  |  | 136 | 138 | 17.4 | 17.7 | ~1000 | 1010 | 0.2
4 | O=C([O-])c1ccc(C(=O)[O-])cc1.[Na+].[Na+] [Disodium terephthalate, disodium terephthalate, reference compound] | 9.7 | 100 |  |  | 100 | 100 | 12.8 | 12.8 | ~630 | 630 | 1.9
